Assay results: the NIST ThermoML archive (doi:10.1021/acs.jced.6b00718)

Experiment: xn = mol fraction of the nth substance listed
Conditions: 101 kPa, Liquid; for electrical conductivity: Alternating current cell with electrodes, x2 = 0.2889; for viscosity: Falling or rolling sphere viscometry; for mass density: Vibrating tube method

N#CCCCCC#N [hexanedinitrile] + CCCC[N+]1(C)CCCC1.O=S(=O)([N-]S(=O)(=O)C(F)(F)F)C(F)(F)F
Conditions	electrical conductivity [S/m]
291.8 K	0.495
295.2 K	0.551
299.3 K	0.62
303.9 K	0.702
313.4 K	0.9
322.2 K	1.1
332.9 K	1.37

Conditions	mass density [kg/m3]	viscosity [mPa·s]
293.15 K, x2 = 0	962.3	7.17
293.15 K, x2 = 0.1002	1063.5	9.85
293.15 K, x2 = 0.1996	1138	13.22
293.15 K, x2 = 0.3004	1196.8	17.56
293.15 K, x2 = 0.3995	1243	25.01
293.15 K, x2 = 0.5001	1281.6	31
293.15 K, x2 = 0.6	1313.1	37.48
293.15 K, x2 = 0.7011	1340	48.32
293.15 K, x2 = 0.7996	1362.5	59.96
293.15 K, x2 = 0.8997	1382.3	77.23
298.15 K, x2 = 0	958.6	6.31
298.15 K, x2 = 0.1002	1059.5	8.45
298.15 K, x2 = 0.1996	1133.9	11.27
298.15 K, x2 = 0.3004	1192.5	14.79
298.15 K, x2 = 0.3995	1238.7	21.46
298.15 K, x2 = 0.5001	1277.3	25.62
298.15 K, x2 = 0.6	1308.6	30.92
298.15 K, x2 = 0.7011	1335.6	39.22
298.15 K, x2 = 0.7996	1358.2	48.21
298.15 K, x2 = 0.8997	1378	61.49
303.15 K, x2 = 0	954.8	5.53
303.15 K, x2 = 0.1002	1055.6	7.35
303.15 K, x2 = 0.1996	1129.8	9.71
303.15 K, x2 = 0.3004	1188.3	12.61
303.15 K, x2 = 0.3995	1234.4	18.54
303.15 K, x2 = 0.5001	1272.9	21.53
303.15 K, x2 = 0.6	1304.2	25.59
303.15 K, x2 = 0.7011	1331.2	32.33
303.15 K, x2 = 0.7996	1353.8	39.41
303.15 K, x2 = 0.8997	1373.5	49.74
313.15 K, x2 = 0	947.2	4.54
313.15 K, x2 = 0.1002	1047.6	5.72
313.15 K, x2 = 0.1996	1121.5	7.43
313.15 K, x2 = 0.3004	1179.9	9.44
313.15 K, x2 = 0.3995	1225.8	14.05
313.15 K, x2 = 0.5001	1264.2	15.63
313.15 K, x2 = 0.6	1295.3	18.34
313.15 K, x2 = 0.7011	1322.3	22.83
313.15 K, x2 = 0.7996	1344.8	27.42
313.15 K, x2 = 0.8997	1364.5	34.01
323.15 K, x2 = 0	939.8	3.73
323.15 K, x2 = 0.1002	1039.8	4.53
323.15 K, x2 = 0.1996	1113.4	5.86
323.15 K, x2 = 0.3004	1171.6	7.32
323.15 K, x2 = 0.3995	1217.3	10.01
323.15 K, x2 = 0.5001	1255.6	11.82
323.15 K, x2 = 0.6	1286.7	13.7
323.15 K, x2 = 0.7011	1313.6	16.83
323.15 K, x2 = 0.7996	1336	19.97
323.15 K, x2 = 0.8997	1355.6	24.42
333.15 K, x2 = 0	932.3	3.02
333.15 K, x2 = 0.1002	1031.9	3.74
333.15 K, x2 = 0.1996	1105.4	4.8
333.15 K, x2 = 0.3004	1163.3	5.87
333.15 K, x2 = 0.3995	1206.3	7.86
333.15 K, x2 = 0.5001	1246.8	9.21
333.15 K, x2 = 0.6	1277.9	10.59
333.15 K, x2 = 0.7011	1304.7	12.85
333.15 K, x2 = 0.7996	1326.7	15.09
333.15 K, x2 = 0.8997	1346.3	18.22
